Patent US20060003951A1, “Anti-viral 7-deaza L-nucleosides” (Micrologix Biotech Inc., priority 2001, published 2006)

melting point: 214.8 to 215.5 °C
SMILES: Nc1ncnc2c1ccn2[C@@H]1C[C@@H](O)[C@H](CO)O1
